According to US10723726B2, “Solid forms of (Z)-4-(5-((3-benzyl-4-oxo-2-thioxothiazolidin-5-ylidene)methyl)furan-2-yl)benzoic acid” (GB006, INC., priority 2015, dated 2020):
≈ marks a conversion by molar mass, not a printed value. Entries after “also recorded” stand apart in the source; their conditions may differ. Structures can show the parent of a compound that is named as a salt.

Legend:
[1] = Humidity stress at 40° C./75% RH; type: physicochemical; conditions: 5-6 days
Protocol: The larger vials were capped, sealed with Parafilm and placed inside an oven at 40° C. for up to 6 days. Salts were then removed from these conditions and changes observed (e.g. color, deliquescence etc.) before being analyzed for weight change and by XRPD. Samples were examined visually after stressing, form composition confirmed by XRPD analysis and weight change recorded (Table 7).

[2] = Aqueous solubility by equilibration, HPLC analysis; type: physicochemical; conditions: for Aq solub: water, ambient temperature, slurried 4-5 days, corrected for weight of counter-ion
Protocol: An aliquot of the UHQ water test solvent (1 mL) was added to an accurately weighed sample of the LA1 salts and agitated at ambient temperature for a period of 4 days. A sample was withdrawn, filtered through a […], and analyzed by HPLC. HPLC was used to determine aqueous equilibrium solubility at ambient temperature. […] Samples were slurried in water for 4-5 days before analysis.

[3] = physchem
Excerpt: A limited salt screen was previously conducted using five inorganic counter-ions (Na, K, NH4, Ca and Mg).

[4] = mice; cited from earlier work
[5] = after slurrying in water 4-5 days

Compound | Weight gain (%) [1] [%] | XRPD after stressing [1] | Appearance [2, 5] | Soln pH [2, 5] | HPLC purity (%) ([2]; after slurrying in water 4-5 days (chemical stability)) | Aq solub ([2]; listed as choline) [mg/mL] | Aq solub ([2]; listed as choline salt) [mg/mL] | solubility [3] [µg/mL] | renal ischemia/reperfusion injury [4]
O=C(O)c1ccc(-c2ccc(/C=C3\SC(=S)N(Cc4ccccc4)C3=O)o2)cc1 [LA1 choline salt] | 8.9 | phase change; also recorded: New pattern (Q) | Darker red color | 8 | 75.51 | 7.052 | 7.1 |  | 
O=C(O)c1ccc(-c2ccc(/C=C3\SC(=S)N(Cc4ccccc4)C3=O)o2)cc1 [LA1, (Z)-4-(5-((3-benzyl-4-oxo-2-thioxothiazolidin-5-ylidene)methyl)furan-2-yl)benzoic acid] |  |  |  |  |  |  |  | 0.78 (≈ 1.85 µM) | reduce renal ischemia/reperfusion injury
